# Measurements as given in US20260028390A1, “ALPHA1-ANTITRYPSIN FOR USE IN THE TREATMENT OF DISEASES OR DISORDERS OF THE NERVOUS SYSTEM SUCH AS CHRONIC INFLAMMATORY DEMYELINATING POLYNEUROPATHY” (Ageronix SA, priority 2022, published 2026).
# Values joined by “and” are separate entries in the source; they are usually repeats but may differ in a detail not shown here. Equal values may be shown once.
# Experiments:
# [1] = Bodyweight, CIDP mouse model; type: in vivo; conditions: per animal, listed as hAAT
# Description: C57BL/6 mice were received at 8 weeks of age and housed under controlled conditions for the duration of the study. Three groups of 4 animals each were assigned to the following subcutaneous treatments twice daily at 7:00 AM and 7:00 PM for 2 weeks, from 20 to 35 days after the start of disease induction: • Wild type (WT) mice receiving the vehicle, 0.9% NaCl (positive control) • CIDP mice receiving the vehicle, 0.9% NaCl (negative control) • CIDP mice receiving human AAT (AAT), 50 mg/kg per injection
# Disease induction consisted in subcutaneous injection of mouse sciatic nerve homogenate in phosphate buffer saline (PBS)+Freund's adjuvant mixture at 10 mL/kg. For each treatment, 3 different body sites injections were performed. Control mice also received three subcutaneous injections of PBS+Freund's adjuvant at the same 3 different body sites.
# [2] = test system: CMT1A mice B6.Cg-Tg(PMP22)C3Fbas/J; assay: Grip strength, CMT mice treated with AAT 180 mg/kg/day sc; type: in vivo, mouse; conditions: 8 weeks old, CMT + hAAT 180 mg/kg/day SC, individual animal
# [3] = test system: CMT1A mice B6.Cg-Tg(PMP22)C3Fbas/J; assay: Sciatic nerve histology, CMT mice treated with AAT 180 mg/kg/day sc; type: in vivo, mouse
# Source text: (§1) Animals were received at 6 weeks of age and housed under controlled conditions for the duration of the study. The study comprised two groups of 8 transgenic mice (CMT mice) each and one group of 8 age matched wild type (WT) C57B16 mice, serving as positive control. Animals were assigned to the following subcutaneous treatments twice daily at 7:00 AM and 7:00 PM for 2 weeks, starting from 8 weeks and up to 10 weeks of age: • Wild-type (WT, no disease) mice receiving vehicle, 0.9% NaCl (positive control) • CMT1A mice receiving vehicle, 0.9% NaCl (negative control) • CMT1A mice receiving AAT at 90 mg/kg per injection (daily dose 180 mg/kg)
# (§2) The efficacy parameters included: • neuromuscular performance (rotarod latency to fall and grip strength test), • sciatic nerve electrophysiology (CMAP amplitude and NCV) • cytokine (IL-6 and TNFα), as well as NfL analysis • sciatic nerve histology (number of axons and axonal diameter),
# [4] = test system: CMT1A mice B6.Cg-Tg(PMP22)C3Fbas/J; assay: Grip strength, CMT mice treated with AAT 180 mg/kg/day sc; type: in vivo, mouse; conditions: for Grip strength, group Mean: 8 animals
# Description: CMT MOUSE MODEL: Non-humanized CMT1A mice B6.Cg-Tg(PMP22)C3Fbas/J (three copies of the PMP22 gene), three groups of 8 animals each.
# DOSAGE: 180 mg/kg/day non-clinical grade AAT (Sigma)
# ADMINISTRATION: Subcutaneous (SC) (bi-daily injection of 90 mg/kg)
# Animals were received at 6 weeks of age and housed under controlled conditions for the duration of the study. The study comprised two groups of 8 transgenic mice (CMT mice) each and one group of 8 age matched wild type (WT) C57B16 mice, serving as positive control. […]
# as §2
# After the last treatment on Day 15, these tests were repeated. Animals were then left untreated for 2 additional weeks to evaluate the duration of the treatment effect. Following the 2-week treatment-free period until 12 weeks of age (Day 30), the behavioural and electrophysiological tests were repeated.
# [5] = test system: plasma IL-6; assay: Plasma IL-6, CMT mice treated with AAT 180 mg/kg/day sc; type: in vivo, mouse
# Source text: as §1, §2
# As supportive information for the mode of action of AAT in CMT, plasma concentration of interleukin 6 (IL-6) and TNFα were measured at Day 1 (8 weeks), Day 15 (10 weeks) and Day 30 (12 weeks). At the same timepoints, plasma levels of the biomarker of nerve damage, NfL were determined.
# [6] = test system: SH-SY5Y cells; assay: Cell viability assay (CCK-8) of SH-SY5Y treated with 6-OHDA; type: cell-based; conditions: 6-OHDA combined with AAT 25 μM, CCK-8 absorbance 450 nm
# Description: SH-SY5Y cells, which are commonly used to model neurodegenerative disorders, were used to produce an in vitro Parkinson's model (Que R, et al., 2021, Front. Immunol. 12). Cells were cultured in DMEMF12/Glutamax supplemented with 10% FBS.
# Cells were treated for 24 hours with the neurotoxin 6-hydroxydopamine (6-OHDA, Sigma Aldrich 162957) at 50, 100 μM concentrations alone or in combination with AAT 25 μM (AAT plasma derived, Sigma Aldrich batch A9024). Cells treated with AAT alone or in combination with 6-OHDA for 24 hours, were then incubated with fresh AAT for additional 24 hours. Control cells were treated with PBS.
# At day 0 cells were plated in equally number in 24-well plate, the day after they were treated as described above, and final total cell count was performed at day 4 of culture (cell growth). Cell viability was assessed with Cell Counting Kit-8 (CCK-8; Sigma Aldrich 96992). After treatments, cells were incubated with 10 μl of CCK-8 solution for 2 hours in the incubator. Absorbance was measured at 450 nm using SpectraMax iD3 Microplate Reader. Experiments were performed in triplicate.
# [7] = CMT1A + AAT 90 mg/kg sc twice daily
# [8] = CMT mice, AAT 180 mg/kg daily dose
# [9] = after 2 weeks treatment free period
# [10] = 8 weeks old (baseline, Day 1), CMT1A + AAT
# [11] = 10 weeks old (Day 15, after 2 weeks AAT 90 mg/kg sc twice daily)
# [12] = 12 weeks old (Day 30, after 2-week treatment-free period)
# [13] = baseline (6 weeks old), CMT + hAAT, individual animal
substance,measurement,setting,value
alpha1-antitrypsin (AAT) protein,Bodyweight,"[1]; day 1 (before disease induction), in g (unit assumed)",20.74 and 20.81 and 19.50 and 20.65
same,Bodyweight,"[1]; day 5 (before treatment), in g (unit assumed)",20.92 and 21.07 and 20.12 and 20.71
same,Bodyweight,[1]; day 9 (before treatment),21.26 (2×) and 20.54 and 21.00
same,Bodyweight,"[1]; day 13 (before treatment), in g (unit assumed)",21.76 and 21.37 and 20.24 and 21.18
same,Bodyweight,"[1]; day 17 (before treatment), in g (unit assumed)",21.92 and 21.54 and 21.35 and 21.90
same,Bodyweight,"[1]; day 20 (first treatment day), in g (unit assumed)",22.06 and 21.58 and 21.41 and 22.04
same,Bodyweight,"[1]; day 23, in g (unit assumed)",22.21 and 21.71 and 21.43 and 22.13
same,Bodyweight,"[1]; day 26, in g (unit assumed)",22.31 and 21.78 and 21.47 and 22.20
same,Bodyweight,"[1]; day 29, in g (unit assumed)",22.49 and 21.87 and 21.53 and 22.30
same,Bodyweight,"[1]; day 32, in g (unit assumed)",22.68 and 22.00 and 21.64 and 22.45
same,Bodyweight,"[1]; day 35, in g (unit assumed)",22.79 and 22.14 and 21.65 and 22.62
same,"Grip strength, Mean/animal",[2],4.83 NEWTONS and 2.73 NEWTONS and 2.97 NEWTONS and 4.09 NEWTONS and 5.05 NEWTONS and 7.59 NEWTONS and 5.53 NEWTONS and 5.68 NEWTONS
same,"Grip strength, set 1",[2],3.97 NEWTONS and 2.15 NEWTONS and 3.47 NEWTONS and 4.13 NEWTONS and 4.85 NEWTONS and 8.17 NEWTONS and 6.20 NEWTONS and 4.87 NEWTONS
same,"Grip strength, set 2",[2],5.37 NEWTONS and 4.34 NEWTONS and 2.22 NEWTONS and 4.58 NEWTONS and 3.84 NEWTONS and 5.69 NEWTONS and 4.40 NEWTONS and 5.39 NEWTONS
same,"Grip strength, set 3",[2],5.14 NEWTONS and 1.69 NEWTONS and 3.21 NEWTONS and 3.55 NEWTONS and 6.47 NEWTONS and 8.92 NEWTONS and 5.99 NEWTONS and 6.77 NEWTONS
same,"Sciatic nerve histology, Axonal diameter (Mean ± SD)",[3]; [7],3.84 ± 0.25 μm
same,"Sciatic nerve histology, Axons/100 μm2 (Mean ± SD)",[3]; [7],26.30 ± 2.00
same,"Sciatic nerve histology, g-ratio (Mean ± SD)",[3]; [7],0.62 ± 0.16
same,axonal diameter relative to untreated CMT animals,[3]; [8],increase
same,g-ratio relative to untreated CMT animals,[3]; [8],decrease
same,number of axons in the treated animals,[3]; [9],significantly larger
same,size of the myelin sheath in the treated animals,[3]; [9],significantly larger
same,Grip strength (Mean ± SD),[4]; [10],3.35 ± 0.27 newtons
same,"Grip strength, group Mean","[4]; 8 weeks old, CMT + hAAT 180 mg/kg/day SC",4.81 NEWTONS
same,Grip strength (Mean ± SD),[4]; [11],5.47 ± 1.11 newtons
same,grip strength vs untreated CMT animals,"[4]; 12 weeks of age, after 2-week treatment-free period, P<0.05",significantly higher
same,Grip strength (Mean ± SD),[4]; [12],3.87 ± 0.36 newtons
same,grip strength vs CMT mice not treated with AAT,"[4]; CMT mice, AAT 90 mg/kg sc twice a day, 8 to 10 weeks of age, end of treatment",significant increase
same,"Grip strength, group Mean","[4]; baseline (6 weeks old), CMT + hAAT",5.54 NEWTONS
same,"Grip strength, Mean/animal",[4]; [13],4.96 NEWTONS and 4.77 NEWTONS and 6.79 NEWTONS and 6.72 NEWTONS and 6.41 NEWTONS and 4.74 NEWTONS and 4.27 NEWTONS and 5.68 NEWTONS
same,"Grip strength, set 1",[4]; [13],6.56 NEWTONS and 5.62 NEWTONS and 7.24 NEWTONS and 5.90 NEWTONS and 4.97 NEWTONS and 4.35 NEWTONS and 6.08 NEWTONS and 6.51 NEWTONS
same,"Grip strength, set 2",[4]; [13],3.79 NEWTONS and 4.00 NEWTONS and 7.19 NEWTONS and 8.88 NEWTONS and 7.60 NEWTONS and 6.25 NEWTONS and 2.61 NEWTONS and 3.97 NEWTONS
same,"Grip strength, set 3",[4]; [13],4.52 NEWTONS and 4.69 NEWTONS and 5.93 NEWTONS and 5.37 NEWTONS and 6.66 NEWTONS and 3.63 NEWTONS and 4.13 NEWTONS and 6.57 NEWTONS
same,Plasma IL-6 (Mean ± SD),[5]; [10],133.48 ± 31.45 pg/mL
same,Plasma IL-6 (Mean ± SD),[5]; [11],69.78 ± 11.76 pg/mL
same,positive effect on IL-6 plasma levels,"[5]; 12 weeks of age, after 2-week treatment-free period",remained significant
same,Plasma IL-6 (Mean ± SD),[5]; [12],120.90 ± 6.47 pg/mL
same,plasma levels of IL-6,"[5]; CMT mice, AAT 90 mg/kg sc twice a day, P<0.01",reduced
same,cell count and viability compared to 6-OHDA treatment alone,[6],significantly enhanced
